Data set [1] concerns the target T1, C-X-C chemokine receptor type 3 (Homo sapiens, UniProt P49682).
T1 sequence (P49682 whole entry): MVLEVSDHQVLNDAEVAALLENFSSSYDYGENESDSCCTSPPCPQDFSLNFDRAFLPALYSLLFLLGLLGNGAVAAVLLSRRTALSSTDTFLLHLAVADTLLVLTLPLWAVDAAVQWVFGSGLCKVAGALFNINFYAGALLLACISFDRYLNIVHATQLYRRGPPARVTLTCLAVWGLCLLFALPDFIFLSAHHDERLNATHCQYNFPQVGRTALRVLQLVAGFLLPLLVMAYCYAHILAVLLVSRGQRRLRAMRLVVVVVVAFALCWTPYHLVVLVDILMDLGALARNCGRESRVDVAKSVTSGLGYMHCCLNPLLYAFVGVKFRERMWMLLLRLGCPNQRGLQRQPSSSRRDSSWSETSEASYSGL
Nature of the data set: Displacement of [125I]IP-10 from CXCR3 receptor expressed in human PBMC in RPMI-1640 buffer supplemented with 0.5% BSA.

For data set [2], the target named is T1, C-X-C chemokine receptor type 3. Nature of the data set: Displacement of [125I]IP-10 from CXCR3 receptor expressed in human PBMC in EDTA-anti-coagulated human plasma.
Data set [3] can be described thus: Mean residence time in rat at 0.5 mg/kg, iv. The class given is ADME, organism-based. On the set-up: dose 0.5 mg/kg, route intravenous. The settings on record: in vivo.
Data set [4] can be described thus: Oral bioavailability in rat at 2 mg/kg. Particulars: in vivo. The class given is ADME, organism-based.
Data set [5] can be described thus: Clearance in rat at 0.5 mg/kg, iv. The class given is ADME, organism-based. Particulars: in vivo. On the set-up: dose 0.5 mg/kg, route intravenous.

The text below walks through data of ChEMBL document CHEMBL1140806, “Optimization of the heterocyclic core of the quinazolinone-derived CXCR3 antagonists” (Bioorg Med Chem Lett, 2008).

In the case of `CCS(=O)(=O)CCN(C(=O)Cc1ccc(F)c(C(F)(F)F)c1)[C@H](C)c1nc2ncccc2cc1-c1ccc(C#N)cc1`, the IC50 was 2 nM in data set [1] and 27 nM in data set [2]. Moreover, in data set [3], the MRT was found to be 22.2 min. For the same compound, the bioavailability in data set [4] stood at 31%. Further, the clearance in data set [5] is 39.7 mL/min/kg.

In the case of `CCS(=O)(=O)CCN(C(=O)Cc1ccc(F)c(C(F)(F)F)c1)[C@H](C)c1nc2c(c(=O)n1-c1ccc(C#N)cc1)CCCN2C`, the IC50 was 4 nM in data set [1] and 60 nM in data set [2]. The compound also showed an MRT in data set [3] of 21 min. This compound also had a clearance in data set [5] of 63 mL/min/kg.

Compound `CCS(=O)(=O)CCN(C(=O)Cc1ccc(F)c(C(F)(F)F)c1)[C@H](C)c1nc2ncccc2c(=O)n1-c1ccc(C#N)cc1` registered an MRT in data set [3] of 31.8 min. Besides, in data set [4], the bioavailability stood at 47%. This compound gave a clearance in data set [5] of 39.7 mL/min/kg.

With `CCS(=O)(=O)CCN(C(=O)Cc1ccc(F)c(C(F)(F)F)c1)[C@H](C)c1nc2ccccc2nc1-c1ccc(C#N)cc1`, the results for the concentration for half-maximal inhibition (IC50) in data set [1] and in data set [2] were 9 nM and 121 nM, respectively.

Take `CCS(=O)(=O)CCN(C(=O)Cc1ccc(F)c(C(F)(F)F)c1)[C@H](C)c1nc2ccccc2cc1-c1ccc(C#N)cc1`: the figures for the IC50 in data set [1] and in data set [2] were 0.8 nM and 21 nM, respectively. Besides, in data set [3], the MRT worked out at 90 min. In data set [4], the bioavailability was 17%. Moreover, the clearance in data set [5] was 42.2 mL/min/kg.

Consider `CCS(=O)(=O)CCN(C(=O)Cc1ccc(F)c(C(F)(F)F)c1)[C@H](C)c1nn2ccccc2c1-c1ccc(C#N)cc1`, for which the values for the IC50 in data set [1] and in data set [2] were 18 nM and 523 nM, respectively.

Compound `CCS(=O)(=O)CCN(C(=O)Cc1ccc(F)c(C(F)(F)F)c1)[C@H](C)c1nc2ccccn2c1-c1ccc(C#N)cc1` had a Ki in data set [1] of 3 nM. In data set [2], this compound came in with an IC50 of 21 nM. In addition, the MRT in data set [3] amounted to 15.6 min. Besides, in data set [4], the bioavailability was found to be 24%. This compound gave a clearance in data set [5] of 36.3 mL/min/kg.

`CCS(=O)(=O)CCN(C(=O)Cc1ccc(F)c(C(F)(F)F)c1)[C@H](C)c1cc2ccccc2nc1-c1ccc(C#N)cc1`: the IC50 was determined as 5 nM in data set [1] and 115 nM in data set [2].

`CCS(=O)(=O)CCN(C(=O)Cc1ccc(F)c(C(F)(F)F)c1)[C@H](C)c1nc2ccccn2c(=O)c1-c1ccc(C#N)cc1` yielded an MRT in data set [3] of 84 min. For the same compound, in data set [4], the bioavailability was determined as 24%. The same compound gave a clearance in data set [5] of 4 mL/min/kg.

For the compound `CCS(=O)(=O)CCN(C(=O)Cc1ccc(F)c(C(F)(F)F)c1)[C@H](C)c1nc2ccccc2n1-c1ccc(C#N)cc1`, the figures for the IC50 in data set [1] and in data set [2] were 6 nM and 35 nM, respectively.

Take `CCS(=O)(=O)CCN(C(=O)Cc1ccc(F)c(C(F)(F)F)c1)[C@H](C)c1nc2ncccn2c1-c1ccc(C#N)cc1`: in data set [2], the IC50 is 79 nM.
